Experimental data as given in article PMC9838390, “Discovery and biosynthesis of karnamicins as angiotensin converting enzyme inhibitors” (Nature Communications, 2023).

Assay: Stability in enzyme reaction buffer
Assay type: physicochemical
Details: reaction buffer (50 mM Tris-HCl, pH 7.5, 30 °C)
Description: To further examine the catalytic role of methyltransferase KnmF and monooxygenases KnmB1 and KnmB2 during the karnamicin assembly process, we decided to characterize their enzyme activities in vitro. For KnmF, we synthesized 28 (Fig. 3, Supplementary Figs. 111–116, and Supplementary Table 19), a putative dedicated substrate of KnmF with a trihydroxypyridine core. Subsequently, a time course analysis of the enzyme-catalyzed reaction was performed with KnmF expressed by Escherichia coli BL21 (DE3) cells (Supplementary Fig. 117) and 28. Intriguingly, immediately following the consumption of 28, a compound 30 appeared. The subsequent decrease in abundance of 30 was accompanied by the accumulation of karnamicin E1 (1) (Fig. 4a). […]
The reaction of KnmF was carried out at 30 °C in a 100 µL system containing 50 mM Tris-HCl buffer (pH 7.5), 1 mM compound 28, 2 mM SAM, and 2 μM KnmF. […] After centrifugation (10 min at 13,523×g), the supernatant was analyzed by HPLC-DAD with solvent gradient as follows: T = 0 min, 55% B; T = 13.5 min, 55% B; T = 19 min, 65% B; T = 35 min, 65% B; T = 40 min, 100% B; T = 45 min, 100% B; T = 45.1 min, 55% B; T = 51 min, 55% B (A, H2O + 0.1% CH3COOH, v/v; B, MeCN), and the column temperature was 25 °C (Analytical method B).

stability in the reaction buffer: degraded rapidly
Compound: CC(C)CCCCc1nc(-c2nc(C(N)=O)c(O)c(O)c2O)cs1 [Compound 28]
